Results published in patent US20050245399A1, “Pyrazole derivatives as herbicidal compositions containing them” (ISHIHARA SANGYO KAISHA, LTD., priority 2004, published 2005).

Assays:
Assay type in all cases: in vivo
[1] = system: barnyardgrass (Echinochiloa oryzicola: ECHOR); assay: Test Example 3 water application herbicidal activity (paddy), ECHOR; conditions: 63 g a.i./ha, water application under submerged condition at 0.5 leaf stage, visually observed 14th day after application; 0 = untreated control, 100 = complete kill
How it was run: (§1)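 Flooded paddy-soil pots in greenhouse; ECHOR and SCPJO sown, SAGPY tubers planted a day later, compound applied into 3–4 cm water at weeds' 0.5-leaf stage. Rice transplanted at 2-leaf stage, treated day 4 after transplanting. Visual growth control 0–100% at 14 days (weeds) and 21 days (rice) after application.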

[2] = system: prickly sida (Sida spinosa L.): SEDSP; assay: Test Example 1 pre-emergence herbicidal activity, SIDSP; conditions: visually observed 20th to 23rd day after application
How it was run: (§2)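 Seeds sown in upland field soil in pots; one day later compound, formulated as wettable powder or emulsifiable concentrate and diluted with water at 500 L/ha, sprayed pre-emergence at a predetermined active-ingredient rate. Growth control scored visually 20–23 days after application, 0 (untreated-like) to 100 (complete kill) %.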

[3] = system: corn (Zea mays L.): ZEAMX; assay: Test Example 1 pre-emergence herbicidal activity, ZEAMX; conditions: visually observed 20th to 23rd day after application
How it was run: as §2

[4] = system: soybean (Glycine max Merr.): GLXMA; assay: Test Example 1 pre-emergence herbicidal activity, GLXMA; conditions: visually observed 20th to 23rd day after application
How it was run: as §2

[5] = system: corn (Zea mays L.), ZEAMX; assay: Test Example 2 post-emergence (foliage treatment) herbicidal activity, ZEAMX
How it was run: (§3)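 Foliar spray of formulated compound (500 L/ha dilution water, 0.1% v/v spreader) onto young potted plants at defined leaf stages. Scored 0-100% by visual inspection 20-23 d post-spray.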

[6] = system: rice (Oryza sativa L.), ORYSA; assay: Test Example 2 post-emergence (foliage treatment) herbicidal activity, ORYSA
How it was run: (§4)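 Pot-grown plants in upland soil were sprayed over the foliage at ECHCG 1.1-2.1, DIGSA 1.0-2.0, AMARE 0.1-1.5 and ORYSA 1.0-2 leaf stage. Wettable powder or emulsifiable concentrate was diluted in water at 500 L/ha plus 0.1% (v/v) spreader. Growth control was scored visually 20-23 days later, 0 (untreated) to 100% (complete kill).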

[7] = system: prickly sida (Sida spinosa L.), SIDSP; assay: Test Example 2 post-emergence (foliage treatment) herbicidal activity, SIDSP
How it was run: as §3

[8] = system: redroot pigweed (Amaranthus retroflexus L.): AMARE; assay: Test Example 1 pre-emergence herbicidal activity, AMARE; conditions: visually observed 20th to 23rd day after application
How it was run: as §2

[9] = system: wheat (Triticum aestivum L.), TRZAX; assay: Test Example 2 post-emergence (foliage treatment) herbicidal activity, TRZAX
How it was run: as §3

[10] = system: green foxtail (Setaria viridis L.), SETVI; assay: Test Example 2 post-emergence (foliage treatment) herbicidal activity, SETVI
How it was run: as §3

[11] = system: rice (Oryza sativa L.): ORYSA; assay: Test Example 1 pre-emergence herbicidal activity, ORYSA; conditions: visually observed 20th to 23rd day after application
How it was run: as §2

[12] = system: barnyardgrass (Echinochloa crus-galli L.): ECHCG; assay: Test Example 1 pre-emergence herbicidal activity, ECHCG; conditions: visually observed 20th to 23rd day after application
How it was run: as §2

[13] = system: wheat (Triticum aestivum L.): TRZAX; assay: Test Example 1 pre-emergence herbicidal activity, TRZAX; conditions: visually observed 20th to 23rd day after application
How it was run: as §2

[14] = system: velvetleaf (Abutilon theophrasti): ABUTH; assay: Test Example 1 pre-emergence herbicidal activity, ABUTH; conditions: visually observed 20th to 23rd day after application
How it was run: as §2

[15] = system: barnyardgrass (Echinochloa crus-galli L.), ECHCG; assay: Test Example 2 post-emergence (foliage treatment) herbicidal activity, ECHCG
How it was run: as §4

[16] = system: green foxtail (Setaria viridis L.): SETVI; assay: Test Example 1 pre-emergence herbicidal activity, SETVI; conditions: visually observed 20th to 23rd day after application
How it was run: as §2

[17] = system: crabgrass (Digitaria sanguinalis L.), DIGSA; assay: Test Example 2 post-emergence (foliage treatment) herbicidal activity, DIGSA
How it was run: as §4

[18] = system: redroot pigweed (Amaranthus retroflexus L.), AMARE; assay: Test Example 2 post-emergence (foliage treatment) herbicidal activity, AMARE
How it was run: as §4

[19] = system: velvetleaf (Abutilon theophrasti), ABUTH; assay: Test Example 2 post-emergence (foliage treatment) herbicidal activity, ABUTH
How it was run: as §3

[20] = system: crabgrass (Digitaria sanguinalis L.): DIGSA; assay: Test Example 1 pre-emergence herbicidal activity, DIGSA; conditions: visually observed 20th to 23rd day after application
How it was run: as §2

[21] = system: soybean (Glycine max Merr.), GLXMA; assay: Test Example 2 post-emergence (foliage treatment) herbicidal activity, GLXMA
How it was run: as §3

[22] = system: rice (Oryza sativa L.: ORYSA); assay: Test Example 3 water application herbicidal activity (paddy), transplanted rice ORYSA; conditions: 63 g a.i./ha, water application 4th day after transplantation of 2 leaf stage rice, visually observed 21st day after application; 0 = untreated control, 100 = complete kill
How it was run: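 Submerged application in flooded paddy soil (3–4 cm water); weeds treated at 0.5-leaf stage, transplanted rice 4 d after transplanting. Scored visually as % growth control: weeds at 14 d, rice at 21 d.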

[23] = system: japanese ribbon wapato (Sagittaria pygmaea: SA GPY); assay: Test Example 3 water application herbicidal activity (paddy), SAGPY; conditions: 63 g a.i./ha, water application under submerged condition, tubers planted, visually observed 14th day after application; 0 = untreated control, 100 = complete kill
How it was run: as §1

[24] = system: japanese bulrush (Scirpus juncoides: SCPJO); assay: Test Example 3 water application herbicidal activity (paddy), SCPJO; conditions: 63 g a.i./ha, water application under submerged condition at 0.5 leaf stage, visually observed 14th day after application; 0 = untreated control, 100 = complete kill
How it was run: as §1

With `COC(=O)CN(C=O)c1c(OC)c(Cl)cc(F)c1-c1nn(C)c(OC(F)F)c1Cl` [Compound 1-20] the “growth controlling degrees (%) ECHOR” value [1] was 90%, the “Pre-emergence Herbicidal Activity SIDSP (growth controlling degree)” value ([2]; Rate 125 g a.i./ha) was 98% and the “Pre-emergence Herbicidal Activity ZEAMX (growth controlling degree)” value ([3]; Rate 125 g a.i./ha) was 0%. For the same molecule, the “Pre-emergence Herbicidal Activity GLXMA (growth controlling degree)” value ([4]; Rate 125 g a.i./ha) was 10%, the “growth controlling degree, ZEAMX” value ([5]; 63 g a.i./ha) was 40% and the “growth controlling degree, ORYSA” value ([6]; 63 g a.i./ha) was 50%. The “growth controlling degree, SIDSP” value ([7]; 63 g a.i./ha) was 90%, the “Pre-emergence Herbicidal Activity AMARE (growth controlling degree)” value ([8]; Rate 125 g a.i./ha) was 100% and the “growth controlling degree, TRZAX” value ([9]; 63 g a.i./ha) was 10%. The “growth controlling degree, SETVI” value ([10]; 63 g a.i./ha) was 70%, the “Pre-emergence Herbicidal Activity ORYSA (growth controlling degree)” value ([11]; Rate 125 g a.i./ha) was 0% and the “Pre-emergence Herbicidal Activity ECHCG (growth controlling degree)” value ([12]; Rate 125 g a.i./ha) was 10%. For the same molecule, the “Pre-emergence Herbicidal Activity TRZAX (growth controlling degree)” value ([13]; Rate 125 g a.i./ha) was 0%, the “Pre-emergence Herbicidal Activity ABUTH (growth controlling degree)” value ([14]; Rate 125 g a.i./ha) was 80% and the “growth controlling degree, ECHCO” value ([15]; 63 g a.i./ha) was 10%. The “Pre-emergence Herbicidal Activity SETVI (growth controlling degree)” value ([16]; Rate 125 g a.i./ha) was 10%, the “growth controlling degree, DIGSP” value ([17]; 63 g a.i./ha) was 20% and the “growth controlling degree, AMARE” value ([18]; 63 g a.i./ha) was 100%. For the same molecule, the “growth controlling degree, ABUTH” value ([19]; 63 g a.i./ha) was 60%, the “Pre-emergence Herbicidal Activity DIGSP (growth controlling degree)” value ([20]; Rate 125 g a.i./ha) was 30% and the “growth controlling degree, GLXMA” value ([21]; 63 g a.i./ha) was 50%. The “growth controlling degrees (%) ORYSA” value [22] was 30%, the “growth controlling degrees (%) SAGPY” value [23] was 0% and the “growth controlling degrees (%) SCPJO” value [24] was 20%.
For `COc1c(Cl)cc(F)c(-c2nn(C)c(OC(F)F)c2Cl)c1NC(=O)CCc1ccccc1` [Compound 1-21], the “growth controlling degrees (%) ECHOR” value [1] was 100%, the “Pre-emergence Herbicidal Activity SIDSP (growth controlling degree)” value ([2]; Rate 63 g a.i./ha) was 100% and the “Pre-emergence Herbicidal Activity ZEAMX (growth controlling degree)” value ([3]; Rate 63 g a.i./ha) was 20%. For the same molecule, the “Pre-emergence Herbicidal Activity GLXMA (growth controlling degree)” value ([4]; Rate 63 g a.i./ha) was 10%, the “growth controlling degree, ZEAMX” value ([5]; 31 g a.i./ha) was 90% and the “growth controlling degree, ORYSA” value ([6]; 31 g a.i./ha) was 90%. For the same molecule, the “growth controlling degree, SIDSP” value ([7]; 31 g a.i./ha) was 100%, the “Pre-emergence Herbicidal Activity AMARE (growth controlling degree)” value ([8]; Rate 63 g a.i./ha) was 100% and the “growth controlling degree, TRZAX” value ([9]; 31 g a.i./ha) was 40%. The “growth controlling degree, SETVI” value ([10]; 31 g a.i./ha) was 95%, the “Pre-emergence Herbicidal Activity ORYSA (growth controlling degree)” value ([11]; Rate 63 g a.i./ha) was 40% and the “Pre-emergence Herbicidal Activity ECHCG (growth controlling degree)” value ([12]; Rate 63 g a.i./ha) was 95%. For the same molecule, the “Pre-emergence Herbicidal Activity TRZAX (growth controlling degree)” value ([13]; Rate 63 g a.i./ha) was 0%, the “Pre-emergence Herbicidal Activity ABUTH (growth controlling degree)” value ([14]; Rate 63 g a.i./ha) was 100% and the “growth controlling degree, ECHCO” value ([15]; 31 g a.i./ha) was 80%. For the same molecule, the “Pre-emergence Herbicidal Activity SETVI (growth controlling degree)” value ([16]; Rate 63 g a.i./ha) was 100%, the “growth controlling degree, DIGSP” value ([17]; 31 g a.i./ha) was 60% and the “growth controlling degree, AMARE” value ([18]; 31 g a.i./ha) was 100%. For the same molecule, the “growth controlling degree, ABUTH” value ([19]; 31 g a.i./ha) was 100%, the “Pre-emergence Herbicidal Activity DIGSP (growth controlling degree)” value ([20]; Rate 63 g a.i./ha) was 100% and the “growth controlling degree, GLXMA” value ([21]; 31 g a.i./ha) was 70%. For the same molecule, the “growth controlling degrees (%) ORYSA” value [22] was 50%, the “growth controlling degrees (%) SAGPY” value [23] was 100% and the “growth controlling degrees (%) SCPJO” value [24] was 70%.
